Values quoted from earlier work as cited in patent US20250288673A1, “GENE THERAPY FOR THE TREATMENT OF ACTIVATED PI3KINASE DELTA SYNDROME TYPE 1 (APDS1)” (Cellectis SA, priority 2022, published 2025).

Columns and labels:
PI3Kδ = details: APDS1 treatment; cited from earlier work
[1] = after administration; cited from earlier work

Structure (SMILES) | effect on lymphadenopathy and immune B cell subpopulations (PI3Kδ) | side effects outside of the immune system [1]
[O-][n+]1cccc(-c2nc3c(Cl)cccc3cc2[C@@H](Nc2ncnc3cccnc23)C(F)(F)F)c1 [Seletalisib] | reduction in lymphadenopathy and normalization of immune B cell subpopulations | liver toxicity
CO[C@H]1C[C@@H]2CC[C@@H](C)[C@@](O)(O2)C(=O)C(=O)N2CCCC[C@H]2C(=O)O[C@H]([C@H](C)C[C@@H]2CC[C@@H](O)[C@H](OC)C2)CC(=O)[C@H](C)/C=C(\C)[C@@H](O)[C@@H](OC)C(=O)[C@H](C)C[C@H](C)/C=C/C=C/C=C/1C [Rapamycin] | – | proteinuria was observed
